# From ChEMBL document CHEMBL4507293 (2021)
# Key:
# [1] = target: Serine/threonine-protein kinase 16 (Homo sapiens) (UniProt O75716); conditions: Compound concentration 100.0 nM
# [2] = target: Calcium/calmodulin-dependent protein kinase type 1 (Homo sapiens) (UniProt Q14012); conditions: Compound concentration 100.0 nM
# Rattus norvegicus = organism: Rattus norvegicus; conditions: Compound concentration 10.0 uM
# [3] = target: Rho-associated protein kinase 2 (Homo sapiens) (UniProt O75116); conditions: Compound concentration 100.0 nM
# [4] = tested on: Phosphatidylinositol 4,5-bisphosphate 3-kinase catalytic subunit alpha isoform (Homo sapiens), P42336 [E545K]; conditions: Compound concentration 100.0 nM
# Chain of Phosphatidylinositol 4,5-bisphosphate 3-kinase catalytic subunit alpha isoform (Homo sapiens), P42336 [E545K] (P42336 whole entry E545K, canonical isoform): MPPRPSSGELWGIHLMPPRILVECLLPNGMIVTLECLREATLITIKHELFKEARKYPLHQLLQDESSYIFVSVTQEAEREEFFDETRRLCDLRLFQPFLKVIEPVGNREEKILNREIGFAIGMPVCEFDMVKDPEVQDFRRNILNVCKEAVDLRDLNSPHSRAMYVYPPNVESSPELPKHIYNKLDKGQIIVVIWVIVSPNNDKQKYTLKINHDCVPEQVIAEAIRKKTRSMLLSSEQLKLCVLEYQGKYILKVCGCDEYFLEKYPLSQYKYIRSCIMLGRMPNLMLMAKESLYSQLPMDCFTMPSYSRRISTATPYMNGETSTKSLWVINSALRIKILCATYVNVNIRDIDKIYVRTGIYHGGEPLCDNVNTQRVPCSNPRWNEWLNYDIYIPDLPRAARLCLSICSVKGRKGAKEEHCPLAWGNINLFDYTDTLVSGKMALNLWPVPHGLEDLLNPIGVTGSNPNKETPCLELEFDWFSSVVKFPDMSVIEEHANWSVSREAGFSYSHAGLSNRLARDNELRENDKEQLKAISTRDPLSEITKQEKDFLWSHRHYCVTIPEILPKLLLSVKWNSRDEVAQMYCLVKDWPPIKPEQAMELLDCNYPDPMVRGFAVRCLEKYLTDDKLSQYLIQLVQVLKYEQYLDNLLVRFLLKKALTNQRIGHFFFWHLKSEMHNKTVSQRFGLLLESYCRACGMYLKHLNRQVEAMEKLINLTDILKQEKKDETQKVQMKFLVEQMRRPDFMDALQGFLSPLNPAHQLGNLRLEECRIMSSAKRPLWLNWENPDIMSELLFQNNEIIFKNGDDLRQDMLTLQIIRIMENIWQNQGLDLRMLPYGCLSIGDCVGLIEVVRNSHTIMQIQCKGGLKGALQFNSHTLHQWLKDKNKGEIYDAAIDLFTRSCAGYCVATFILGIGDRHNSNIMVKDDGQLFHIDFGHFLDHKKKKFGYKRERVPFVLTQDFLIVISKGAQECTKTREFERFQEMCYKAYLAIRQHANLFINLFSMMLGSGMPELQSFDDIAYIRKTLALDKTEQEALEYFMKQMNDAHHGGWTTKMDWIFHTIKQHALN
# [5] = target: Beta-adrenergic receptor kinase 1 (Homo sapiens) (UniProt P25098); conditions: Compound concentration 100.0 nM
# [6] = target: GABA-A receptor; anion channel (Rattus norvegicus) (UniProt O09028+P15431+P18506+P18508+P19969+P20236+P23574+P23576+P28471+P28473+P30191+P62813+P63079+P63138+Q91ZM7+Q9ES14); conditions: Compound concentration 10.0 uM
# [7] = target: Mitogen-activated protein kinase 12 (Homo sapiens) (UniProt P53778); conditions: Compound concentration 100.0 nM
# [8] = target: Tyrosine-protein kinase Lyn (Homo sapiens) (UniProt P07948); conditions: Compound concentration 100.0 nM
# [9] = target: Tyrosine-protein kinase SYK (Homo sapiens) (UniProt P43405); conditions: Compound concentration 100.0 nM
# [10] = target: Serine/threonine-protein kinase WNK3 (Homo sapiens) (UniProt Q9BYP7); conditions: Compound concentration 100.0 nM
# [11] = target: Mitogen-activated protein kinase kinase kinase 20 (Homo sapiens) (UniProt Q9NYL2); conditions: Compound concentration 100.0 nM
# [12] = target: Interleukin-1 receptor-associated kinase 3 (Homo sapiens) (UniProt Q9Y616); conditions: Compound concentration 100.0 nM
# Chain of Interleukin-1 receptor-associated kinase 3 (Homo sapiens) (Q9Y616 whole entry): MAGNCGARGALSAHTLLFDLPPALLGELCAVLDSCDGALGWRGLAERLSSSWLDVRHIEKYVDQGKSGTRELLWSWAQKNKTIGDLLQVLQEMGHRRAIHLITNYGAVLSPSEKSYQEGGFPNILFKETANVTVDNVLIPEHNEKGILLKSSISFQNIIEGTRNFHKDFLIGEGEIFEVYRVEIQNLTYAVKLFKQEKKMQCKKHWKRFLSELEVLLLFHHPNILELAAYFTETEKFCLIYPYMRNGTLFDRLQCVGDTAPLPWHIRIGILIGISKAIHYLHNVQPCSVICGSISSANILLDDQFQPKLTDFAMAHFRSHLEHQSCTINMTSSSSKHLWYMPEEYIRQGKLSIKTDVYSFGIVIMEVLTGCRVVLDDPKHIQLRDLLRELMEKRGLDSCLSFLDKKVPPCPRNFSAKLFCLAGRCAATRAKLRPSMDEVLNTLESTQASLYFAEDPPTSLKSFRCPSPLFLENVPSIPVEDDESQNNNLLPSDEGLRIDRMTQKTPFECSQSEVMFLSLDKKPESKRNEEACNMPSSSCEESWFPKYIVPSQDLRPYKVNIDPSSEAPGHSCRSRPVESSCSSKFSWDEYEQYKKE
# [13] = target: Interferon-induced, double-stranded RNA-activated protein kinase (Homo sapiens) (UniProt P19525); conditions: Compound concentration 100.0 nM
# [14] = target: Mitogen-activated protein kinase kinase kinase 7 (Homo sapiens) (UniProt O43318); conditions: Compound concentration 100.0 nM
# [15] = target: T1, Muscarinic acetylcholine receptor M4 (Homo sapiens) (UniProt P08173); conditions: Compound concentration 10.0 uM
# T1 sequence (whole entry): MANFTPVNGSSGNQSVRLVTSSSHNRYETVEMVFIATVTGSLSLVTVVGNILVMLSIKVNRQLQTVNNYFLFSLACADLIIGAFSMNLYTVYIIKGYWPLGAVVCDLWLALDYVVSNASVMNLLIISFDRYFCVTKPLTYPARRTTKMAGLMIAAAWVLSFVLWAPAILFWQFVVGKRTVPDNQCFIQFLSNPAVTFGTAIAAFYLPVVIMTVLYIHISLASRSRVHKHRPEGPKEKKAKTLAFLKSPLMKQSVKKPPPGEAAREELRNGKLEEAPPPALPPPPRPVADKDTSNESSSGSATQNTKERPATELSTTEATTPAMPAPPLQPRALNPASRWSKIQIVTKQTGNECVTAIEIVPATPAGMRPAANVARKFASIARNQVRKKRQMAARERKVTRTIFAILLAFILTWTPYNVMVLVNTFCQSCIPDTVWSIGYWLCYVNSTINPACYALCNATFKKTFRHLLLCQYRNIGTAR
# [16] = target: Cyclin-dependent kinase 4 (Homo sapiens) (UniProt P11802); conditions: Compound concentration 100.0 nM
# Chain of Cyclin-dependent kinase 4 (Homo sapiens) (P11802 whole entry): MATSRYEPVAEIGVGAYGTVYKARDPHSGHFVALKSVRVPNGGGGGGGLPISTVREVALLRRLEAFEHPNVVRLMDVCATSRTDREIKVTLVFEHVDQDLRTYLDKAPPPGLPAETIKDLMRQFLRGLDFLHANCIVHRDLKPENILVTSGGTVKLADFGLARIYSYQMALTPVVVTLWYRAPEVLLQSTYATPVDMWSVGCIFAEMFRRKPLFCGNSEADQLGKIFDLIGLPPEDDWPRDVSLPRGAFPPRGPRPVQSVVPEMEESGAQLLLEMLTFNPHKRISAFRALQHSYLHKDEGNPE
# [17] = target: Protein kinase C epsilon type (Homo sapiens) (UniProt Q02156); conditions: Compound concentration 100.0 nM
# [18] = target: Sigma intracellular receptor 2 (Homo sapiens, UniProt Q5BJF2); conditions: Compound concentration 10.0 uM
# Chain of Sigma intracellular receptor 2 (Q5BJF2 whole entry): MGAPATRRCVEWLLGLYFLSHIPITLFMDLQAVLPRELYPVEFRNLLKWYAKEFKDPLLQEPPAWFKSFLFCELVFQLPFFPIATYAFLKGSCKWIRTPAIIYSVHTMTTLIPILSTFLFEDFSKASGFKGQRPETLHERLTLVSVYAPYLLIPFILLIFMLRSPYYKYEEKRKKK
# [19] = target: Mitogen-activated protein kinase kinase kinase 19 (Homo sapiens) (UniProt Q56UN5); conditions: Compound concentration 100.0 nM
# [20] = target: Ribosomal protein S6 kinase beta-1 (Homo sapiens) (UniProt P23443); conditions: Compound concentration 100.0 nM
# [21] = target: Mitogen-activated protein kinase 15 (Homo sapiens) (UniProt Q8TD08); conditions: Compound concentration 100.0 nM
# [22] = target: Tyrosine-protein kinase CSK (Homo sapiens) (UniProt P41240); conditions: Compound concentration 100.0 nM
# [23] = tested on: Receptor-type tyrosine-protein kinase FLT3 (Homo sapiens), P36888 [K663Q]; conditions: Compound concentration 100.0 nM
# [24] = target: 5-hydroxytryptamine receptor 1D (Homo sapiens) (UniProt P28221); conditions: Compound concentration 10.0 uM
# [25] = target: Mitogen-activated protein kinase 13 (Homo sapiens) (UniProt O15264); conditions: Compound concentration 100.0 nM
# Chain of Mitogen-activated protein kinase 13 (Homo sapiens) (O15264 whole entry): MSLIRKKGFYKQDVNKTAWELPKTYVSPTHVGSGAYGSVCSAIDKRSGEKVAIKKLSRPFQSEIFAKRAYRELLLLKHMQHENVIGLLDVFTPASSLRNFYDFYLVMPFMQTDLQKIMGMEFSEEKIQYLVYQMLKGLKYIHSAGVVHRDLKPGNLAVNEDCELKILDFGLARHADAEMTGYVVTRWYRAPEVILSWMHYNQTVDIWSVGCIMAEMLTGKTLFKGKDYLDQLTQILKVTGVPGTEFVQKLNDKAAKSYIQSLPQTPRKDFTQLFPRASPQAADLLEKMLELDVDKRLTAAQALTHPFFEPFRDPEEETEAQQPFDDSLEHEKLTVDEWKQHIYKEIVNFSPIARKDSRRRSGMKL
# [26] = tested on: Tyrosine-protein kinase ABL1 (Homo sapiens), P00519 [E255K]; conditions: Compound concentration 100.0 nM
# [27] = target: Delta-type opioid receptor (Homo sapiens) (UniProt P41143); conditions: Compound concentration 10.0 uM
# [28] = target: Receptor-type tyrosine-protein kinase FLT3 (Homo sapiens) (UniProt P36888); conditions: Compound concentration 100.0 nM
# [29] = target: Serine/threonine-protein kinase 25 (Homo sapiens) (UniProt O00506); conditions: Compound concentration 100.0 nM
# [30] = target: Hormonally up-regulated neu tumor-associated kinase (Homo sapiens) (UniProt P57058); conditions: Compound concentration 100.0 nM
# [31] = target: Serine/threonine-protein kinase Nek9 (Homo sapiens) (UniProt Q8TD19); conditions: Compound concentration 100.0 nM
# Chain of Serine/threonine-protein kinase Nek9 (Homo sapiens) (Q8TD19 whole entry): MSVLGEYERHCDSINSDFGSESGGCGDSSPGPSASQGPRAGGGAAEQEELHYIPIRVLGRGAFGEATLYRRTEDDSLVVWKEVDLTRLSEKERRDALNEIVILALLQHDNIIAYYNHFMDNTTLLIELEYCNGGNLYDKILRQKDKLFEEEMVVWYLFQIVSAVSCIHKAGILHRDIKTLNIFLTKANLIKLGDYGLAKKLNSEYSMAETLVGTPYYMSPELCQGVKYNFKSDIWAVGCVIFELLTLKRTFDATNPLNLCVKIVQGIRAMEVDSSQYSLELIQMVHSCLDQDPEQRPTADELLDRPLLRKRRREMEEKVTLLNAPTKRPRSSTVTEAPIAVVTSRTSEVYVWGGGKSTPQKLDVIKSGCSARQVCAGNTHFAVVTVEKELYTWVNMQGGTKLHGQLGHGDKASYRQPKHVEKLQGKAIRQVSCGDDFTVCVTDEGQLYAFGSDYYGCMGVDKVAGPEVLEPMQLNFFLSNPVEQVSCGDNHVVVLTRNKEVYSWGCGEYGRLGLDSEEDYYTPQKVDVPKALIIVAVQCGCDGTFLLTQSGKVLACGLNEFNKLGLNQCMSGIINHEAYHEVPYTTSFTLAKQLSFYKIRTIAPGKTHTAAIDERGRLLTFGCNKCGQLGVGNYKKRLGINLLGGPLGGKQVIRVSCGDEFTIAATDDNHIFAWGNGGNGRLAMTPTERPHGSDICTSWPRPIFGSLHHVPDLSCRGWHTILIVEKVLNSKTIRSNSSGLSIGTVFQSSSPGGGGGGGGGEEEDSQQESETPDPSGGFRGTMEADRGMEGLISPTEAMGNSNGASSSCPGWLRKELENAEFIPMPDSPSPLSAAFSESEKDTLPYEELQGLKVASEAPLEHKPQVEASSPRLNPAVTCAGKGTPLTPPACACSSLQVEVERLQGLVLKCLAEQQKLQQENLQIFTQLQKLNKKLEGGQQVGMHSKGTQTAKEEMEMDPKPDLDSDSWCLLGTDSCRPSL
# [32] = target: Mitogen-activated protein kinase 11 (Homo sapiens) (UniProt Q15759); conditions: Compound concentration 100.0 nM
# [33] = target: SRSF protein kinase 2 (Homo sapiens) (UniProt P78362); conditions: Compound concentration 100.0 nM
# Chain of SRSF protein kinase 2 (Homo sapiens) (P78362 whole entry, looked up): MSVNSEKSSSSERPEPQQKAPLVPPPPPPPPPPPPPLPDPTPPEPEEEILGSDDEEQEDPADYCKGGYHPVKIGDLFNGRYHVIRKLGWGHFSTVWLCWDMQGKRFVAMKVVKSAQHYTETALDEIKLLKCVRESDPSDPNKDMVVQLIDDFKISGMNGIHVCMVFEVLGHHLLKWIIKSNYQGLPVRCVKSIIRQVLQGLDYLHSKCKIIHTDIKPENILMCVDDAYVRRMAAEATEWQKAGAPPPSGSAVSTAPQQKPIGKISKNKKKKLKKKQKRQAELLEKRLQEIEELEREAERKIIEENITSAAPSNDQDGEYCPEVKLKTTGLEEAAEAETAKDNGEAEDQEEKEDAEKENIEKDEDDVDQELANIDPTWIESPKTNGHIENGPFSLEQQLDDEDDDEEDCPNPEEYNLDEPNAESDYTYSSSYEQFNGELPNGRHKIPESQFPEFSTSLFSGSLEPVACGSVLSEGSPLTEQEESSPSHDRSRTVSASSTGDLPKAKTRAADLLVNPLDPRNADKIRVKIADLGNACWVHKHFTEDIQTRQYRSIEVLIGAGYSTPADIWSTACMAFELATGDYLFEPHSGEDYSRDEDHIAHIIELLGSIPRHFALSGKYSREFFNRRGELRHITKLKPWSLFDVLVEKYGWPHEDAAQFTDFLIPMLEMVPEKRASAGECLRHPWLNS
# [34] = target: Dual specificity protein kinase CLK1 (Homo sapiens) (UniProt P49759); conditions: Compound concentration 100.0 nM
# Chain of Dual specificity protein kinase CLK1 (Homo sapiens) (P49759 whole entry, looked up): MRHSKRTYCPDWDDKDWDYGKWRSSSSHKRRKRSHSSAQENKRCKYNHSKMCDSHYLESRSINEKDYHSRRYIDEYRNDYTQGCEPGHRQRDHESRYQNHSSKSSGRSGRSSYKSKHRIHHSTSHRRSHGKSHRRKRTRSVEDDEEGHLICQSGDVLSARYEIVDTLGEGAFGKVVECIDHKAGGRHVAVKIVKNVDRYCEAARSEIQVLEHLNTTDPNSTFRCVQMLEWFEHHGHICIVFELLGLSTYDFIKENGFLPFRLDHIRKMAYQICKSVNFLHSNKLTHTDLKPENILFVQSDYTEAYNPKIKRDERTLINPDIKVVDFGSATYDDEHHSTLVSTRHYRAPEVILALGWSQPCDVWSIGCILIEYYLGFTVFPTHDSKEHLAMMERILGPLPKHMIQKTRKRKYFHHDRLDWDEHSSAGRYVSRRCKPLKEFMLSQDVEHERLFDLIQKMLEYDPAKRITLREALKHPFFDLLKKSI
# [35] = target: Testis-specific serine/threonine-protein kinase 1 (Homo sapiens) (UniProt Q9BXA7); conditions: Compound concentration 100.0 nM
# [36] = tested on: Tyrosine-protein kinase ABL1 (Homo sapiens), P00519 [Q252H]; conditions: Compound concentration 100.0 nM
# [37] = target: Serine/threonine-protein kinase D2 (Homo sapiens) (UniProt Q9BZL6); conditions: Compound concentration 100.0 nM
# Chain of Serine/threonine-protein kinase 16 (Homo sapiens) (O75716 whole entry): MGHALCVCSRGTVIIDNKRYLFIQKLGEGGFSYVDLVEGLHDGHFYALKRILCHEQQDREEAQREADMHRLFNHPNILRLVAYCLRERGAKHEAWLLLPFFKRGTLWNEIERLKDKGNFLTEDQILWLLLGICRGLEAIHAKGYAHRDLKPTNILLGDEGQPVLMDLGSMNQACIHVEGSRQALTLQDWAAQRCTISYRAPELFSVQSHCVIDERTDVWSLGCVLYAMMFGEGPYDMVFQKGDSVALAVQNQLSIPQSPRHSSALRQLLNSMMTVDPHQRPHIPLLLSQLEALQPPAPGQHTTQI
Structure (SMILES),residual activity [1] [%],residual activity [2] [%],inhibition (Rattus norvegicus) [%],residual activity [3] [%],residual activity [4] [%],residual activity [5] [%],inhibition [6] [%],residual activity [7] [%],residual activity [8] [%],residual activity [9] [%],residual activity [10] [%],residual activity [11] [%],residual activity [12] [%],residual activity [13] [%],residual activity [14] [%],inhibition [15] [%],residual activity [16] [%],residual activity [17] [%],inhibition [18] [%],residual activity [19] [%],other results
CC(C)CC(=O)N1CCc2nc(-c3ccc(Br)cc3)nc(N(C)Cc3ccccc3)c2C1 [THPP-1-NC],100,100,41,74,85,100,-4.66,79,88,100,100,100,100,100,78,3.58,85,100,78.8,100,residual activity [20]: 100%; residual activity [21]: 100%; residual activity [22]: 100%; residual activity [23]: 100%; inhibition [24]: 22.6%; residual activity [25]: 100%; residual activity [26]: 100%; inhibition [27]: 8.22%; residual activity [28]: 60%; residual activity [29]: 100%; residual activity [30]: 86%; residual activity [31]: 100%; residual activity [32]: 100%; residual activity [33]: 100%; residual activity [34]: 100%; residual activity [35]: 99%; residual activity [36]: 88%; residual activity [37]: 100%
COCCOc1nc(-c2ccc(Cl)nc2)nc2c1CN(C(=O)c1ncn3ccccc13)CC2 [THPP-1],100,100,26.1,76,71,100,15,72,73,100,100,100,100,100,93,2,96,89,55.6,100,residual activity [20]: 100%; residual activity [21]: 100%; residual activity [22]: 100%; residual activity [23]: 100%; inhibition [24]: 8.09%; residual activity [25]: 100%; residual activity [26]: 100%; inhibition [27]: 6.52%; residual activity [28]: 85%; residual activity [29]: 100%; residual activity [30]: 78%; residual activity [31]: 100%; residual activity [32]: 100%; residual activity [33]: 100%; residual activity [34]: 100%; residual activity [35]: 100%; residual activity [36]: 81%; residual activity [37]: 100%
